pIC50: −log10 of the molar value. Where a name gives a salt, the structure may show the parent alone. Read-outs that look alike come from different tables or passages of the source.
What was measured:
vanilloid receptor (VR1) = target: T1, vanilloid receptor (VR1) (Rattus norvegicus, UniProt O35433); test: Functional investigations on vanilloid receptor (VR1): Ca2+ influx FLIPR assay in CHO K1 cells stably transfected with the VR1 gene; assay type: cell-based, rats; details: method (b), 10 μM, 1–3 measurements; for inhibition at 10 µM: CHO-K1, read-out: VR1 inhibition in rats (10 μM) [%]
T1 construct: expressed in transfected cells; host or cells: CHO K1 cells (ECACC)
T1 sequence (O35433 whole entry): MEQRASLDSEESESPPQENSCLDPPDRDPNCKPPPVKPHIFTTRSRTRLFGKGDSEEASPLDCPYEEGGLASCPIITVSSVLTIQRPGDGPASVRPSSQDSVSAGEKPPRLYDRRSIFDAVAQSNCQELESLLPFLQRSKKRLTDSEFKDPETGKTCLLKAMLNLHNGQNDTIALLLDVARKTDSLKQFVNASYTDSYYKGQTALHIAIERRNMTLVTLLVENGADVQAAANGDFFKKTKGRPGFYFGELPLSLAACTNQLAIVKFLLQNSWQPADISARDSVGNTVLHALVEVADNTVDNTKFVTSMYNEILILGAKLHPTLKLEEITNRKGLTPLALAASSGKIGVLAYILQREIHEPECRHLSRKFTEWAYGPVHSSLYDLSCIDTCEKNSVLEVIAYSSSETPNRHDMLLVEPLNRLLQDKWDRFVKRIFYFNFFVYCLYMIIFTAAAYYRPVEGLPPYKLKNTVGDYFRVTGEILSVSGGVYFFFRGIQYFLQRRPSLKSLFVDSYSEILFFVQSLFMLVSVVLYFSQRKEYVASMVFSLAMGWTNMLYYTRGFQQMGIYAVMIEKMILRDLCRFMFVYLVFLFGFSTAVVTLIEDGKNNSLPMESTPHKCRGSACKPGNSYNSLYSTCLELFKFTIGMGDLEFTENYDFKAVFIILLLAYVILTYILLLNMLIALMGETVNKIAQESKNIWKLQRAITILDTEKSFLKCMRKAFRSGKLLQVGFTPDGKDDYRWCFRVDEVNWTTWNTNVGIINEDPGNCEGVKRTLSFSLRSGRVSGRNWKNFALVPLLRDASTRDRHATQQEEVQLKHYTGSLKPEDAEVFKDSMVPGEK
Source text: (b) Functional Investigations on Vanilloid Receptor (VR1)
The agonistic or antagonistic action of the substances to be investigated on the vanilloid receptor (VR1) may be determined with the following assay. According to this assay, the influx of Ca^2+ through the channel is quantified with the assistance of a Ca^2+-sensitive dye (type Fluo4, Molecular Probes Europe BV, Leiden, Netherlands) in a Fluorescent Imaging Plate Reader (FLIPR, Molecular Devices, Sunnyvale, USA).
Chinese hamster ovary cells (CHO K1 cells, European Collection of Cell Cultures (ECACC), Great Britain) are stably transfected with the VR1 gene. For functional investigations, these cells are plated out onto poly-D-lysine-coated, black 96 well plates with a clear bottom (BD Biosciences, Heidelberg, Germany) at a density of 25,000 cells/well. The cells are incubated overnight at 37° C. and 5% CO2 in a culture medium (Ham's Nutrient Mixture F12, 10 vol. % FCS (foetal calf serum), 18 μg/mL L-proline). On the following day, the cells are incubated with Fluo4 (Fluo4 2 μM, Pluronic F127 0.01 vol. %, Molecular Probes in HBSS (Hank's buffered saline solution), Gibco Invitrogen GmbH, Karlsruhe, Germany) for 30 minutes at 37° C. The plates are then washed 3 times with HBSS buffer and, after a further 15 minutes' incubation at room temperature, used for Ca^2+ measurement in the FLIPR. Ca^2+-dependent fluorescence is here measured before and after addition of the substances to be investigated (wavelength λex=488 nm, λem=540 nm). Quantification proceeds by measuring the highest fluorescence intensity (FC, fluorescence counts) over time.
The FLIPR protocol comprises 2 additions of substance. […] The percentage inhibition in comparison with the maximum achievable inhibition with 10 μM capsazepine is calculated.

[1] = target: T2, vanilloid receptor VR1 (capsaicin receptor) (Rattus norvegicus, UniProt O35433); test: Determination of affinity for vanilloid receptor VR1 ([3H] resiniferatoxin binding, rat spinal cord membranes); parameters: species or system Sprague Dawley rats
T2 construct: isolated from the spinal cord of male Sprague Dawley rats (breeder: Charles River Deutschland, 32699 Extertal) and used for preparation of the membrane; from tissue; host or cells: rat spinal cord (cervical region and one third of the thoracic region) membranes
T2 sequence (O35433 whole entry): as above
Source text: This method was developed on the basis of the publication by Acs et al., J. Neurochem. 65, 301-308 (1995). The corresponding description is hereby introduced as a reference and is deemed to be part of the disclosure.
• Sprague Dawley rats weighing between 150-300 g • (breeder: Charles River Deutschland, 32699 Extertal, Germany) • HEPES (item no. H-3375, SIGMA) • NaCl (item no. 6400.1000; Merck) • KCl (item no.: 4936.1000; Merck) • HCl (item no.: 1.00317; Merck) • [^3H] resiniferatoxin ([^3H] RTX) (item no.: NET-1132, Perkin-Elmer) • Resiniferatoxin (RTX, cold) (item no.: 550-179-M001, Alexis) • D-Glucose (item no.: 1.08337.1000, Merck) • Sucrose (item no.: S-9378, Sigma) • α1-acid glycoprotein (item no.: G-3643, Sigma) • BSA (bovine serum albumin, item no.: A-2153, Sigma) • GF/B filter mats (Brandel Inc., cat. no. FP 100, size: 2¼″×12¼″)
Buffer: (Concentration values in brackets in each case in mM)
• HEPES (10); KCl (5); NaCl (5.8); CaCl (0.75); MgCl (2.0); D-glucose (12); • sucrose (137). The pH value is adjusted at room temperature using 20% strength HCl. B. Preparation of Membranes
The cervical region and one third of the following thoracic region is isolated from the spinal cord of male Sprague Dawley rats (breeder: Charles River Deutschland, 32699 Extertal) and used for preparation of the membrane. After the combined tissue is weighed, it is homogenized in ice-cooled buffer of the above-stated composition. 20 ml of buffer were used per 1 g of tissue (1:20 weight/volume). Homogenisation performed with a homogeniser from Kinematica, model Polytron PT-3000 with PT-DA-3012/2 drive unit. The spinal cord tissue is disrupted within 60 seconds in the cold buffer with ice cooling at a rotational speed of 6000 rpm. The material is then centrifuged for 10 minutes at 1000 g and +4° C. and the resultant precipitate discarded. The […] in the same volume of buffer of the above-stated composition. The material is then centrifuged for 40 minutes at 48,000 g and +4° C. and the supernatant discarded. The resultant precipitate is resuspended in 30 ml of buffer of the above-stated composition and used in this form in the vanilloid receptor (VR1) assay.
Incubation is performed in the water bath for one hour at 37° C. The samples are then placed in an ice bath for 15 minutes. In order to minimise nonspecific adsorption of the RTX, 100 μg of α1-acid glycoprotein (in 50 μl of buffer) are added to each incubation tube. The samples are then thoroughly mixed on a vortex shaker and left to stand for 10 minutes. The batches are then filtered with the assistance of the model M-24R “Brandel Cell Harvester” through a GF/B glass fiber filter mat which has been presoftened in tris buffer. The filter is then rinsed through 3 times with 4 ml portions of ice-cold HEPES buffer of the above-stated composition for each sample. The filters are transferred into scintillation counter vessels, each is combined with a 10 ml portion of “Ready Protein” scintillating material, and the vessels are closed with screw caps. The vessels are shaken on the vortex shaker and left to stand for at least 15 hours in the fume cupboard. The samples are then measured on the β-counter (model 1409 Wallac, Perkin Elmer, 63110 Rogau-Jügesheim, Germany).

Compound	inhibition at 10 µM (vanilloid receptor (VR1))	VR1 activation in rats (10 μM) [%] (vanilloid receptor (VR1))	also measured
CCCCCC(C)(C)Nc1c(-c2ccoc2)nc2ccccn12 [Example 7, (1,1-Dimethyl-hexyl)-(2-furan-3-yl-imidazo[1,2-a]pyridin-3-yl)-amine hydrochloride]	46%	–	–
CCCCCCC(C)(C)Nc1c(-c2ccoc2)nc2cc(C)ccn12.Cl [Example 15, (1,1-Dimethyl-heptyl)-(2-furan-3-yl-7-methyl-imidazo[1,2-a]pyridin-3-yl)-amine hydrochloride]	92.5%	49%	–
CCCCCC(C)(C)Nc1c(-c2ccoc2)nc2ccc(C)cn12 [Example 28, (1,1-Dimethyl-hexyl)-(2-furan-3-yl-6-methyl-imidazo[1,2-a]pyridin-3-yl)-amine hydrochloride]	36.6%	–	–
CC1(C)C[C@H]2C=C(C=O)[C@]3(C=O)C[C@]3(C)[C@H]2C1 [Isovelleral]	–	–	pIC50 [1]: 5.14
CCCCCC(C)(C)Nc1c(-c2ccncc2)nc2cc(C)ccn12 [Example 26, (1,1-Dimethyl-hexyl)-(7-methyl-2-pyridin-4-yl-imidazo[1,2-a]pyridin-3-yl)-amine hydrochloride]	32.1%	–	–
C=C(C)[C@]12C[C@@H](C)[C@@]34O[C@](Cc5ccccc5)(O[C@@H]1[C@@H]3C=C(COC(=O)Cc1ccc(O)c(OC)c1)C[C@]1(O)C(=O)C(C)=C[C@@H]41)O2 [Resiniferatoxin]	–	–	pIC50 [1]: 9.68
COc1cc(CNC(=O)CCCCCCC(C)C)ccc1O [Dihydrocapsaicin]	–	–	pIC50 [1]: 5.57
CCCCCCCNc1c(-c2ccoc2)nc2cc(C)ccn12.Cl [Example 11, (2-Furan-3-yl-7-methyl-imidazo[1,2-a]pyridin-3-yl)-heptyl-amine hydrochloride]	81.7%	50.3%	–
CCCCCCCC(C)(C)Nc1c(-c2ccoc2)nc2cc(C)ccn12 [Example 16, (1,1-Dimethyl-octyl)-(2-furan-3-yl-7-methyl-imidazo[1,2-a]pyridin-3-yl)-amine hydrochloride]	31.8%	–	–
CCCCCCCNc1c(-c2ccoc2)nc2ccccn12 [Example 6, (2-Furan-3-yl-imidazo[1,2-a]pyridin-3-yl)-heptyl-amine hydrochloride]	66.4%	–	–
CCCCCCCCNc1c(-c2ccncc2)nc2cc(C)ccn12 [Example 25, (7-Methyl-2-pyridin-4-yl-imidazo[1,2-a]pyridin-3-yl)-octyl-amine hydrochloride]	33.2%	–	–
CCCCC/C=C\C/C=C\C/C=C\C/C=C\CCCC(=O)NCc1ccc(O)c(OC)c1 [Arvanil]	–	–	pIC50 ([1]; [3H] RTX 100 pM, rat spinal cord membranes, comparison substances, read-out: IC50 (VR-1 receptor affinity, reference data)): 5.05
CCCCCCCCNc1c(-c2ccoc2)nc2ccc(C)cn12 [Example 27, (2-Furan-3-yl-6-methyl-imidazo[1,2-a]pyridin-3-yl)-octyl-amine hydrochloride]	61.1%	–	–
CCCCCC(C)(C)Nc1c(-c2ccoc2)nc2cc(C)ccn12.Cl [Example 14, (1,1-Dimethyl-hexyl)-(2-furan-3-yl-7-methyl-imidazo[1,2-a]pyridin-3-yl)-amine hydrochloride]	97.9%	52.1%	–
CCCCCC(C)(C)Nc1c(-c2ccsc2)nc2cc(C)ccn12.Cl [Example 17, (1,1-Dimethyl-hexyl)-(7-methyl-2-thiophen-3-yl-imidazo[1,2-a]pyridin-3-yl)-amine hydrochloride]	97.5%	68.9%	–
CCCCCCC(C)(C)Nc1c(-c2ccsc2)nc2cc(C)ccn12.Cl [Example 18, (1,1-Dimethyl-heptyl)-(7-methyl-2-thiophen-3-yl-imidazo[1,2-a]pyridin-3-yl)-amine hydrochloride]	62.8%	45.3%	–
CCCCCCCCCNc1c(-c2cccnc2)nc2cc(C)ccn12 [Example 23, (7-Methyl-2-pyridin-3-yl-imidazo[1,2-a]pyridin-3-yl)-nonyl-amine hydrochloride]	34.4%	–	–
CCCCCCCCNc1c(-c2ccoc2)nc2cc(C)ccn12.Cl [Example 12, (2-Furan-3-yl-7-methyl-imidazo[1,2-a]pyridin-3-yl)-octyl-amine hydrochloride]	84.6%	36.9%	–

Reference: US7592351B2, “Substituted imidazo[1,2-a]pyridine compounds and pharmaceutical preparations containing substituted imidazo[1,2-a]pyridine compounds” (Gruenenthal GmbH, priority 2004, dated 2009)
